Data from patent publication US11707447B1.

Key:
5-HT1A receptor = biological target: T1, 5-HT1A receptor (Homo sapiens, UniProt P08908); assay: cAMP-Glo assay in +5-HT1A / -5-HT1A CHO-K1 cells; format: cell-based; details: forskolin-stimulated +5-HT1A vs -5-HT1A cells, increasing ligand
T1 construct: host or cells: CHO-K1 (co-expressing Ga15)
T1 sequence (P08908 1-422): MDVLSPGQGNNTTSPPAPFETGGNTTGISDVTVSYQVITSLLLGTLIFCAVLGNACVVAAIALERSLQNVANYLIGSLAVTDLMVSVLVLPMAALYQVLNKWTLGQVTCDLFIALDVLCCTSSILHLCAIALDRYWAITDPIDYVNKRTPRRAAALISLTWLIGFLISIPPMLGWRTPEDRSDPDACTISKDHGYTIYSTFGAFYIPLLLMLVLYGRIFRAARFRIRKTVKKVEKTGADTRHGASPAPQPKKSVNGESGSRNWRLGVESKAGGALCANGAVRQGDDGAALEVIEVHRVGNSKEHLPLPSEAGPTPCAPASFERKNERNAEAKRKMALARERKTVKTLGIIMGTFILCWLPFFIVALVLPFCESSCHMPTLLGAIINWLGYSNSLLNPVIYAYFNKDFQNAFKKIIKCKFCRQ

5-HT2A receptor = 5-HT2A receptor (Homo sapiens, UniProt P28223); assay: [3H]ketanserin competition radioligand binding assay (SPA); details: control ligands
Sequence of 5-HT2A receptor (P28223 whole entry): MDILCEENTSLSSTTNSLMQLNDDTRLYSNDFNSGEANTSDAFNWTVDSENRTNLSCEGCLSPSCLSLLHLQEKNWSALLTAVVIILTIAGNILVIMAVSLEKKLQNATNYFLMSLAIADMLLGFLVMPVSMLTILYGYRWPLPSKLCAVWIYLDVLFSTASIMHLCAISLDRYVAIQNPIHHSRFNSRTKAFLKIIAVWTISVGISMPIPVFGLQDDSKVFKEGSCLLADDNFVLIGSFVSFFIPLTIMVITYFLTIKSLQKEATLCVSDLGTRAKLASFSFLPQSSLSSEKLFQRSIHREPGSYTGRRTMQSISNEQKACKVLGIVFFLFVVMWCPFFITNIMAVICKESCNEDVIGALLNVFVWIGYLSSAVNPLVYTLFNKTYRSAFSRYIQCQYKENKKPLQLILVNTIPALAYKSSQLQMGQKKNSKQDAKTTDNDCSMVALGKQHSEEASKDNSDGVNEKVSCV

Structure (SMILES)	cAMP level / 5-HT1A receptor modulation (in words) (5-HT1A receptor)	5-HT2A competition binding (in words) (5-HT2A receptor)
NCCc1c[nH]c2ccc(O)cc12 [serotonin]	reduction in cAMP levels	
CN(C)CCc1c[nH]c2cccc(O)c12 [psilocin]	reduction in cAMP levels	positive control (binding)
